# US20230108906A1, “SUBSTITUTED BICYCLIC AND TRICYCLIC UREAS AND AMIDES, ANALOGUES THEREOF, AND METHODS USING SAME” (Arbutus Biopharma Corporation, priority 2019, published 2023)
# Tested on: HBV rcDNA in HepDE19 cells
# Test: HepDE19 assay with bDNA quantitation of HBV rcDNA
# Type: cell-based, hepatitis B virus (HBV)
# Conditions: Hepatitis B virus, HepDE19, 168 h, inhibition of rcDNA formation in HepDE19 cells (HepG2 derived), Tet-free medium, 7 day incubation, Quantigene 2.0 bDNA readout, top concentration 25 μM; read-out: DE-19bDNA EC50
# Outline: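 Cytotoxicity run on replicate plates (5,000 cells/well, 4 days, ATP luminescence, CC50), while antiviral plates (50,000 cells/well) received compound for 7 days after tetracycline withdrawal to induce HBV replication. Top dose 25 μM, 8 points, 0.5% DMSO; rcDNA by branched-DNA assay, % inhibition fitted (4-parameter) for EC50 and EC90.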
row,Structure (SMILES),EC50 [µM]
1,"CN(C(=O)Nc1ccc(F)c(Cl)c1)C1COC(O)c2[nH]c(=O)c3cc(F)c(F)cc3c21 (stereo not shown) [Compound 151, 3-(3-Chloro-4-fluorophenyl)-1-(8,9-difluoro-4-hydroxy-6-oxo-1,4,5,6-tetrahydro-2H1-pyrano[3,4-c]isoquinolin-1-yl)-1-methylurea]",0.02
2,"CCN(C(=O)Nc1ccc(F)c(C)c1)C1COCc2[nH]c(=O)c3cc(Cl)ccc3c21 (stereo not shown) [Compound 59, 1-(8-Chloro-6-oxo-1,4,5,6-tetrahydro-2H-pyrano[3,4-c]isoquinolin-1-yl)-1-ethyl-3-(4-fluoro-3-methylphenyl)urea]",0.02
3,"CN(C(=O)Nc1ccc(F)c(F)c1)C1CCCc2[nH]c(=O)c3cc(F)ccc3c21 (stereo not shown) [Compound 32, 3-(3,4-Difluorophenyl)-1-(8-fluoro-6-oxo-1,2,3,4,5,6-hexahydrophenanthridin-1-yl)-1-methylurea]",0.11
4,"CN(C(=O)Nc1ccc(F)c(C(F)F)c1)[C@@H]1COCc2nc(OCCN)c3cc(F)c(F)cc3c21 [Compound 252, (S)-1-(6-(2-Aminoethoxy)-8,9-difluoro-1,4-dihydro-2H-pyrano[3,4-c]isoquinolin-1-yl)-3-(3-(difluoromethyl)-4-fluorophenyl)-1-methylurea]",0.02
5,"CN(C(=O)Nc1ccc(F)c(Cl)c1)[C@@H]1COCc2c1c1cc(F)c(F)cc1c(=O)n2C [Compound 243, (S)-3-(3-Chloro-4-fluorophenyl)-1-(8,9-difluoro-5-methyl-6-oxo-1,4,5,6-tetrahydro-2H-pyrano[3,4-c]isoquinolin-1-yl)-1-methylurea]",0.02
6,"CCN(C(=O)Nc1ccc(F)c(C#N)c1)C1COCc2[nH]c(=O)c3cc(Cl)ccc3c21 (stereo not shown) [Compound 66, 1-(8-Chloro-6-oxo-1,4,5,6-tetrahydro-2H-pyrano[3,4-c]isoquinolin-1-yl)-3-(3-cyano-4-fluorophenyl)-1-ethylurea]",0.05
7,"Cc1cc(NC(=O)N(C)C2COCc3[nH]c(=O)c4cc(F)ccc4c32)ccc1F (stereo not shown) [Compound 57, 3-(4-Fluoro-3-methylphenyl)-1-(8-fluoro-6-oxo-1,4,5,6-tetrahydro-2H-pyrano[3,4-c]isoquinolin-1-yl)-1-methylurea]",0.01
8,"CN(C(=O)Nc1ccc(F)c(Cl)c1)C1CCCc2c1c1ccccc1c(=O)n2C (stereo not shown) [Compound 31, 3-(3-Chloro-4-fluorophenyl)-1-methyl-1-(5-methyl-6-oxo-1,2,3,4,5,6-hexahydrophenanthridin-1-yl)urea]",0.26
9,"CN(C(=O)Nc1ccc(F)c(Cl)c1)C1CCCc2[nH]c(=O)c3c(F)c(F)ccc3c21 (stereo not shown) [Compound 28, 3-(3-Chloro-4-fluorophenyl)-1-(7,8-difluoro-6-oxo-1,2,3,4,5,6-hexahydrophenanthridin-1-yl)-1-methylurea]",0.44

# Same assay, conditions: Hepatitis B virus, HepDE19, 168 h, read-out: DE-19bDNA EC50 (uM), inhibition of rcDNA formation in HepDE19 cells (HepG2 derived), Tet-free medium, 7 day incubation, Quantigene 2.0 bDNA readout, top concentration 25 μM
row,Structure (SMILES),EC50 [µM]
1,"COc1ccc(NC(=O)N(C)[C@@H]2COCc3[nH]c(=O)c4cc(F)c(F)cc4c32)cc1Cl [Compound 147, (S)-3-(3-Chloro-4-methoxyphenyl)-1-(8,9-difluoro-6-oxo-1,4,5,6-tetrahydro-2H-pyrano[3,4-c]isoquinolin-1-yl)-1-methylurea]",0.14

# Same assay, conditions: inhibition of rcDNA formation in HepDE19 cells (HepG2 derived), Tet-free medium, 7 day incubation, Quantigene 2.0 bDNA readout, top concentration 25 μM; read-out: DE-19bDNA EC50
row,Structure (SMILES),EC50 [µM]
1,"CN(C(=O)Nc1ccc(F)c(C(F)F)c1)C1CNCc2[nH]c(=O)c3cc(F)c(F)cc3c21 (single isomer, unassigned) [Compound 217, 1-(8,9-Difluoro-6-oxo-1,2,3,4,5,6-hexahydrobenzo[c][1,7]naphthyridin-1-yl)-3-(3-(difluoromethyl)-4-fluorophenyl)-1-methylurea]",0.04
2,"CN(C(=O)Nc1ccc(F)c(Cl)c1)C1COCc2nc(NCCN)c3cc(F)c(F)cc3c21 (single isomer, unassigned) [Compound 249]",8.3
3,"CN(C(=O)Nc1ccc(F)c(C#N)c1)C1CNCc2[nH]c(=O)c3cc(F)ccc3c21 (single isomer, unassigned) [Compound 161, 3-(3-Cyano-4-fluorophenyl)-1-(8-fluoro-6-oxo-1,2,3,4,5,6-hexahydrobenzo[c][1,7]naphthyridin-1-yl)-1-methylurea]",17
4,"CN(C(=O)Nc1ccc(F)c(C#N)c1)C1C[S+]([O-])Cc2[nH]c(=O)c3cc(F)ccc3c21 (single isomer, unassigned) [Compound 201, 3-(3-Cyano-4-fluorophenyl)-1-(8-fluoro-3-oxido-6-oxo-1,4,5,6-tetrahydro-2H-thiopyrano[3,4-c]isoquinolin-1-yl)-1-methylurea]",3.6
5,"CN(C(=O)Nc1ccc(F)c(Cl)c1)C1COCc2nc(NCCO)c3cc(F)c(F)cc3c21 (single isomer, unassigned) [Compound 245, 3-(3-Chloro-4-fluorophenyl)-1-(8,9-difluoro-6-((2-hydroxyethyl)amino)-1,4-dihydro-2H-pyrano[3,4-c]isoquinolin-1-yl)-1-methylurea]",4.2
6,"CN(C(=O)Nc1cc(Cl)c(F)c(Cl)c1)C1COCc2[nH]c(=O)c3cc(F)ccc3c21 (single isomer, unassigned) [Compound 98, 3-(3,5-Dichloro-4-fluorophenyl)-1-(8-fluoro-6-oxo-1,4,5,6-tetrahydro-2H-pyrano[3,4-c]isoquinolin-1-yl)-1-methylurea]",0.03
7,"CN(C(=O)Nc1ccc(F)c(Cl)c1)C1CSCc2[nH]c(=O)c3cc(F)c(F)cc3c21 (single isomer, unassigned) [Compound 188, 3-(3-Chloro-4-fluorophenyl)-1-(8,9-difluoro-6-oxo-1,4,5,6-tetrahydro-2H-thiopyrano[3,4-c]isoquinolin-1-yl)-1-methylurea]",0.02
8,"CC(C)CN(C(=O)Nc1ccc(F)c(C#N)c1)C1COCc2[nH]c(=O)c3cc(F)ccc3c21 (single isomer, unassigned) [Compound 115, 3-(3-Cyano-4-fluorophenyl)-1-(8-fluoro-6-oxo-1,4,5,6-tetrahydro-2H-pyrano[3,4-c]isoquinolin-1-yl)-1-isobutylurea]",0.01
9,"CC(C)(O)CN(C(=O)Nc1ccc(F)c(Cl)c1)C1COCc2[nH]c(=O)c3cc(F)ccc3c21 (single isomer, unassigned) [Compound 111, 3-(3-Chloro-4-fluorophenyl)-1-(8-fluoro-6-oxo-1,4,5,6-tetrahydro-2H-pyrano[3,4-c]isoquinolin-1-yl)-1-(2-hydroxy-2-methylpropyl)urea]",0.2
10,"CN(C(=O)Nc1ccc(F)c(Cl)c1)C1C[S+]([O-])Cc2[nH]c(=O)c3cc(F)ccc3c21 (single isomer, unassigned) [Compound 196, 3-(3-Chloro-4-fluorophenyl)-1-(8-fluoro-3-oxido-6-oxo-1,4,5,6-tetrahydro-2H-thiopyrano[3,4-c]isoquinolin-1-yl)-1-methylurea]",22
11,"CCN(C(=O)Nc1ccc(F)c(Cl)c1)C1CCCc2[nH]c(=O)c3c(c21)CCCC3 (single isomer, unassigned) [Compound 54, 3-(3-Chloro-4-fluorophenyl)-1-ethyl-1-(6-oxo-1,2,3,4,5,6,7,8,9,10-decahydrophenanthridin-1-yl)urea]",0.03
12,"CNc1nc2c(c3cc(F)c(F)cc13)C(N(C)C(=O)Nc1ccc(F)c(C(F)F)c1)COC2 (single isomer, unassigned) [Compound 235, 1-(8,9-Difluoro-6-(methylamino)-1,4-dihydro-2H-pyrano[3,4-c]isoquinolin-1-yl)-3-(3-(difluoromethyl)-4-fluorophenyl)-1-methylurea]",1.81
13,"CN(C(=O)Nc1ccc(F)cc1)C1COCc2[nH]c(=O)c3cc(F)c(F)cc3c21 (single isomer, unassigned) [Compound 103, 1-(8,9-Difluoro-6-oxo-1,4,5,6-tetrahydro-2H-pyrano[3,4-c]isoquinolin-1-yl)-3-(4-fluorophenyl)-1-methylurea]",5.3
14,"CN(C(=O)Nc1ccc(F)c(Cl)c1)C1COCc2[nH]c(=O)c3ccccc3c21 (single isomer, unassigned) [Compound 37, 3-(3-Chloro-4-fluorophenyl)-1-methyl-1-(6-oxo-1,4,5,6-tetrahydro-2H-pyrano[3,4-c]isoquinolin-1-yl)urea]",0.03
15,"CC(=O)N1Cc2[nH]c(=O)c3cc(F)c(F)cc3c2C(N(C)C(=O)Nc2ccc(F)c(C#N)c2)C1 (single isomer, unassigned) [Compound 178, 1-(3-Acetyl-8,9-difluoro-6-oxo-1,2,3,4,5,6-hexahydrobenzo[c][1,7]naphthyridin-1-yl)-3-(3-cyano-4-fluorophenyl)-1-methylurea]",11

# Same assay, conditions: read-out: DE-19bDNA EC50; inhibition of rcDNA formation in HepDE19 cells (HepG2 derived), Tet-free medium, 7 day incubation, Quantigene 2.0 bDNA readout, top concentration 25 μM
row,Structure (SMILES),EC50 [µM]
1,"CN(C(=O)Nc1cccc(Cl)c1)C1COCc2[nH]c(=O)c3cc(F)c(F)cc3c21 (single isomer, unassigned) [Compound 120, 3-(3-Chlorophenyl)-1-(8,9-difluoro-6-oxo-1,4,5,6-tetrahydro-2H-pyrano[3,4-c]isoquinolin-1-yl)-1-methylurea]",0.01
2,"CN(C(=O)Nc1ccccc1)C1COCc2[nH]c(=O)c3cc(F)c(F)cc3c21 (single isomer, unassigned) [Compound 102, 1-(8,9-Difluoro-6-oxo-1,4,5,6-tetrahydro-2H-pyrano[3,4-c]isoquinolin-1-yl)-1-methyl-3-phenylurea]",0.03
3,"CN(C(=O)N1Cc2ccc(C(F)(F)F)cc2C1)C1CNCc2[nH]c(=O)c3cc(F)c(F)cc3c21 (single isomer, unassigned) [Compound 232, N-(8,9-Difluoro-6-oxo-1,2,3,4,5,6-hexahydrobenzo[c][1,7]naphthyridin-1-yl)-N-methyl-5-(trifluoromethyl)isoindoline-2-carboxamide]",20
